Common to all, as to assay type: cell-based, human
For data set [1], the system named is PC3 (p53−) (Prostate Adenocarcinoma). As to the kind of experiment: Cell viability analysis, prostate cancer PC3. The settings on record: for viability at 10 µM: Homo sapiens, 72 h.
For data set [2], the system named is A549 (Lung Adenocarcinoma). As to the kind of experiment: Cell viability analysis, lung cancer A549. Conditions: for viability at 10 µM: Homo sapiens, A549, 72 h.
For data set [3], the system named is HeLa (Cervix Adenocarcinoma). As to the kind of experiment: Cell viability analysis, cervical cancer HeLa. The settings on record: for viability at 10 µM: Homo sapiens, HeLa, 72 h.
Data set [4] has as its system HI650 (Lung Adenocarcinoma). As to the kind of experiment: Cell viability analysis, lung cancer HI650. Conditions: for viability at 10 µM: Homo sapiens, NCI-H1650, 72 h.
Data set [5] concerns MKN-45 (Gastric Adenocarcinoma). In words: Cell viability analysis, gastric cancer MKN-45. Conditions: for viability at 10 µM: Homo sapiens, MKN-45, 72 h.
Data set [6] deals with LoVo (Colorectal Adenocarcinoma). As to the kind of experiment: Cell viability analysis, colon cancer LoVo. The settings on record: for viability at 10 µM: Homo sapiens, LoVo, 72 h, read-out: cell viability (survival rate), LoVo, drug 10 μM, 72 hours, WST-1, OD450 nm. (Tetrazolium dyes change colour on reduction, which living cells bring about.)
For data set [7], the system named is TSGH-8301 (Urinary Bladder Carcinoma). In words: Cell viability analysis, bladder cancer TSGH-8301. Conditions: for viability at 10 µM: Homo sapiens, 72 h.
The subject of data set [8] is HL-60 (Acute Promyelocytic Leukemia). As to the kind of experiment: Cell viability analysis, leukemia HL-60. Conditions: for viability at 10 µM: Homo sapiens, HL-60, 72 h.
Data set [9] has as its system A375 (Amelanotic Melanoma). As to the kind of experiment: Cell viability analysis, skin cancer A375. The settings on record: for viability at 10 µM: Homo sapiens, A-375, 72 h.
Data set [10] concerns MCF7 (Mammary Gland, Adenocarcinoma). As to the kind of experiment: Cell viability analysis, breast cancer MCF7. Conditions: for viability at 10 µM: Homo sapiens, MCF7, 72 h.
The subject of another data set is cancer cell lines. In words: Cell viability analysis (WST-1) on cancer cell lines. The settings on record: drug 10 μM, 72 hours, WST-1; Table 3.
Data set [11] has as its system AGS (Gastric Adenocarcinoma). In words: Cell viability analysis, gastric cancer AGS. Conditions: for viability at 10 µM: Homo sapiens, 72 h.
Data set [12] concerns HepG2 (Hepatocellular Carcinoma). As to the kind of experiment: Cell viability analysis, hepatic cancer HepG2. Conditions: for viability at 10 µM: Homo sapiens, HepG2, 72 h.
Setting [13] is: drug 10 μM, 72 hours, WST-1, OD450 nm, read-out: cell viability (survival rate), PC3.
Setting [14] is: drug 10 μM, 72 hours, WST-1, OD450 nm, read-out: cell viability (survival rate), A549.
[15] abbreviates: drug 10 μM, 72 hours, WST-1, OD450 nm, read-out: cell viability (survival rate), HeLa.
The mark [16] stands for this setting: drug 10 μM, 72 hours, WST-1, OD450 nm, read-out: cell viability (survival rate), H1650.
[17] abbreviates: drug 10 μM, 72 hours, WST-1, OD450 nm, read-out: cell viability (survival rate), MKN-45.
[18] abbreviates: drug 10 μM, 72 hours, WST-1, OD450 nm, read-out: cell viability (survival rate), TSGH.
[19] abbreviates: drug 10 μM, 72 hours, WST-1, OD450 nm, read-out: cell viability (survival rate), HL-60.
Where [20] appears, read: drug 10 μM, 72 hours, WST-1, OD450 nm, read-out: cell viability (survival rate), A375.
The mark [21] stands for this setting: drug 10 μM, 72 hours, WST-1, OD450 nm, read-out: cell viability (survival rate), MCF7.
The mark [22] stands for this setting: drug 10 μM, 72 hours, WST-1, OD450 nm, read-out: cell viability (survival rate), AGS.
Where [23] appears, read: drug 10 μM, 72 hours, WST-1, OD450 nm, read-out: cell viability (survival rate), HepG2.
Setting [24] is: read-out: cell viability (survival rate), PC3, drug 10 μM, 72 hours, WST-1, OD450 nm.
Where [25] appears, read: read-out: cell viability (survival rate), A549, drug 10 μM, 72 hours, WST-1, OD450 nm.
The mark [26] stands for this setting: read-out: cell viability (survival rate), HeLa, drug 10 μM, 72 hours, WST-1, OD450 nm.
Setting [27] is: read-out: cell viability (survival rate), H1650, drug 10 μM, 72 hours, WST-1, OD450 nm.
[28] abbreviates: read-out: cell viability (survival rate), MKN-45, drug 10 μM, 72 hours, WST-1, OD450 nm.
Where [29] appears, read: read-out: cell viability (survival rate), TSGH, drug 10 μM, 72 hours, WST-1, OD450 nm.
Where [30] appears, read: read-out: cell viability (survival rate), HL-60, drug 10 μM, 72 hours, WST-1, OD450 nm.
Setting [31] is: read-out: cell viability (survival rate), A375, drug 10 μM, 72 hours, WST-1, OD450 nm.
[32] abbreviates: read-out: cell viability (survival rate), MCF7, drug 10 μM, 72 hours, WST-1, OD450 nm.
Where [33] appears, read: read-out: cell viability (survival rate), AGS, drug 10 μM, 72 hours, WST-1, OD450 nm.
[34] abbreviates: read-out: cell viability (survival rate), HepG2, drug 10 μM, 72 hours, WST-1, OD450 nm.

Nine compounds from patent US10105357B2, “Indication of antibiotic drugs for preparation of cancer inhibition pharmaceutical composition” (LAUNX BIOMEDICAL CO., LTD., priority 2014, dated 2018) can be followed below.

Where two headings read alike, the source gives them in different places.

By viability is commonly meant a read-out of living cells in per cent, often relative to untreated cells. `CC(=O)O[C@]1(C(C)=O)CC[C@H]2[C@@H]3C[C@H](C)C4=CC(=O)CC[C@]4(C)[C@H]3CC[C@@]21C` [Medroxyprogesterone acetate]: the viability at 10 µM in [1] (setting [13]) came to 82%; in [2] (setting [14]), 60.5%; in [3] (setting [15]), 70.4%; in data set [4] (setting [16]), 38.6%; in data set [5] (setting [17]), 66.9%; in data set [6], 65.9%. For the same compound, the viability at 10 µM in data set [7] (setting [18]) worked out at 79.4%; in [8] (setting [19]), 51.7%; in data set [9] (setting [20]), 81%; in data set [10] (setting [21]), 69.3%; in data set [11] (setting [22]) it was 72.3%; in data set [12] (setting [23]), 78.6%. Further, in the data set on cancer cell lines, the “inhibition effect on different cancer cell lines” value is recorded as “significant inhibition effect”.
Take `C[C@H]1[C@H](NC(=O)/C(=N\OC(C)(C)C(=O)O)c2csc(N)n2)C(=O)N1S(=O)(=O)O` [Aztreonam (Azactam, Cayston), Aztreonam]: the viability at 10 µM was determined as 55.2% in [1] (setting [24]); 56.9% in data set [2] (setting [25]); 87.2% in data set [3] (setting [26]); 48.6% in data set [4] (setting [27]); 60.5% in data set [5] (setting [28]); 76.3% in data set [6]. Also, the viability at 10 µM in data set [7] (setting [29]) is 52.3%; in data set [8] (setting [30]) it was 113%; in [9] (setting [31]), 88.6%; in data set [10] (setting [32]), 68.6%; in [11] (setting [33]) it was 40.9%; in [12] (setting [34]), 111%. In addition, in the data set with cancer cell lines, the “inhibition effect on different cancer cell lines” value is reported as “significant inhibition effect”.
`[O-][n+]1ccccc1[S-].[O-][n+]1ccccc1[S-].[Zn+2]` [Pyrithione zinc]: the “cell viability (survival rate), PC3” value in [1] was determined as 24.3. In data set [2], the “cell viability (survival rate), A549” value is listed as 29.7. For the same compound, the “cell viability (survival rate), HeLa” value in data set [3] came out at 47.4. Also, in [4], the “cell viability (survival rate), H1650” value came out at 60.6. The “cell viability (survival rate), MKN-45” value in data set [5] stood at 57.4. Moreover, in data set [6], the “cell viability (survival rate), LoVo” value was 45.5. The “cell viability (survival rate), TSGH” value in data set [7] came to 28.7. In addition, in data set [8], the “cell viability (survival rate), HL-60” value came to 34.5. For the same compound, in data set [9], the “cell viability (survival rate), A375” value was determined as 27.1. Moreover, in [10], the “cell viability (survival rate), MCF7” value is recorded as 51.8. In addition, the “inhibition effect on different cancer cell lines” value in the data set on cancer cell lines was “significant inhibition effect”. Besides, the “cell viability (survival rate), AGS” value in [11] was found to be 35.4. The “cell viability (survival rate), HepG2” value in data set [12] is 70.4.
As for `NC1CCN(c2c(F)cc3c(=O)c(C(=O)O)cn(C4CC4)c3c2Cl)C1` (stereo not drawn) [Clinafloxacin (PD127391), Clinafloxacin], the viability at 10 µM worked out at 36.7% in [1] (setting [24]); 67.5% in [2] (setting [25]); 97% in data set [3] (setting [26]); 72.4% in [4] (setting [27]); 91.3% in data set [5] (setting [28]); 92.7% in [6]. For the same compound, the viability at 10 µM in data set [7] (setting [29]) was 83.3%; in [8] (setting [30]) it was 71.2%; in data set [9] (setting [31]), 59.3%; in data set [10] (setting [32]), 78.6%; in data set [11] (setting [33]) it was 74.2%; in data set [12] (setting [34]), 73.8%. In the data set with cancer cell lines, the “inhibition effect on different cancer cell lines” value was “significant inhibition effect”.
As to `O=C(C[S+]([O-])Cc1ccco1)NC/C=C\COc1cc(CN2CCCCC2)ccn1` (stereo not drawn) [Lafutidine], the viability at 10 µM is 40.7% in data set [1] (setting [13]); 21.3% in data set [2] (setting [14]); 46.9% in data set [3] (setting [15]); 80.1% in data set [4] (setting [16]); 89.6% in data set [5] (setting [17]); 48% in data set [6]. Further, the viability at 10 µM is 51.9% in [7] (setting [18]); 95.3% in data set [8] (setting [19]); 116% in [9] (setting [20]); 33.6% in [10] (setting [21]); 45.5% in [11] (setting [22]); 102% in data set [12] (setting [23]). In addition, the “inhibition effect on different cancer cell lines” value with cancer cell lines is “significant inhibition effect”.
As for `COc1c(N2CCNC(C)C2)c(F)cc2c(=O)c(C(=O)O)cn(C3CC3)c12` (stereo not drawn) [Gatifloxacin], the viability at 10 µM in [1] (setting [13]) was determined as 82.2%; in data set [2] (setting [14]), 96%; in data set [3] (setting [15]) it was 84.1%; in data set [4] (setting [16]) it was 47.2%; in data set [5] (setting [17]), 84.2%; in data set [6], 98.3%. Also, the viability at 10 µM turned out to be 65% in data set [7] (setting [18]); 100% in data set [8] (setting [19]); 63.3% in data set [9] (setting [20]); 130% in data set [10] (setting [21]); 71.4% in [11] (setting [22]); 65.6% in data set [12] (setting [23]). Also, the “inhibition effect on different cancer cell lines” value in the data set on cancer cell lines is given as “significant inhibition effect”.
Turning to `Clc1ccccc1C(c1ccccc1)(c1ccccc1)n1ccnc1` [Clotrimazole (Canesten), Clotrimazole], the viability at 10 µM in data set [1] (setting [24]) was 69.3%; in [2] (setting [25]), 85.5%; in [3] (setting [26]), 90%; in data set [4] (setting [27]), 75.9%; in data set [5] (setting [28]), 53.9%; in [6], 94.1%. Also, the viability at 10 µM turned out to be 50.8% in data set [7] (setting [29]); 106% in [8] (setting [30]); 81.4% in [9] (setting [31]); 56.8% in data set [10] (setting [32]); 85.7% in data set [11] (setting [33]); 102% in [12] (setting [34]). Further, the “inhibition effect on different cancer cell lines” value with cancer cell lines is recorded as “significant inhibition effect”.
For the compound `Cc1cccc(C)c1OCC(=O)N[C@@H](Cc1ccccc1)[C@@H](O)C[C@H](Cc1ccccc1)NC(=O)[C@H](C(C)C)N1CCCNC1=O` [Lopinavir (ABT-378), Lopinavir], the viability at 10 µM was found to be 68% in data set [1] (setting [24]); 63.8% in data set [2] (setting [25]); 116% in [3] (setting [26]); 53.1% in [4] (setting [27]); 74.2% in [5] (setting [28]); 85.1% in [6]. The viability at 10 µM in data set [7] (setting [29]) is 82.2%; in data set [8] (setting [30]), 92.4%; in data set [9] (setting [31]) it was 83.1%; in [10] (setting [32]) it was 77.9%; in data set [11] (setting [33]), 55.4%; in data set [12] (setting [34]), 93.1%. Also, the “inhibition effect on different cancer cell lines” value in the data set with cancer cell lines is “significant inhibition effect”.
For the compound `Cc1ccnc2c1NC(=O)c1cccnc1N2C1CC1` [Nevirapine (Viramune), Nevirapine], the viability at 10 µM in [1] (setting [13]) amounted to 84.1%; in [2] (setting [14]) it was 45.7%; in [3] (setting [15]) it was 58.9%; in data set [4] (setting [16]), 89.7%; in [5] (setting [17]), 68.3%; in [6], 85.7%. In addition, the viability at 10 µM in [7] (setting [18]) was 103%; in [8] (setting [19]), 98.7%; in data set [9] (setting [20]), 66.8%; in data set [10] (setting [21]), 38.5%; in [11] (setting [22]), 115%; in data set [12] (setting [23]), 85.5%. The “inhibition effect on different cancer cell lines” value in the data set on cancer cell lines is given as “significant inhibition effect”.
